How the values were obtained:
[1] = Moderate sUA supplementation in mice (plasma, whole blood, tissue and serum levels); type: in vivo, mouse; conditions: for Interference with whole blood NAD+ metabolism: OA or inosine alone, 1-day treatment, inflammatory conditions
Experimental: Plasma sUA levels in mice were increased to the minimum physiological levels of humans by moderate sUA supplementation. For 1-day sUA supplementation, WT and CD38 KO mice received oral administration of saline, OA (1.5 g/kg), or OA (1.5 g/kg) plus inosine (1.5 g/kg), the gavage volume was 5 mL/kg. Drug suspension in saline was freshly prepared and warmed to 37°C before each treatment. The mice received the first treatment on the evening (19:00) of the first day and the second treatment on the morning (9:00) of the second day. For 3- or 7-day sUA supplementation, WT and CD38 KO mice received the same treatment twice daily from the evening of the first day to the morning of the last day. Four hours after the last treatment, the mice were sacrificed and whole blood, serum, plasma, and tissues were collected for metabolic studies. For immunological studies, mice were stimulated with different ligands 2 hr after the second treatment on the morning (9:00) of the second day.
WT mice received oral administration of saline, OA, or OA plus inosine (1-day supplementation model, as described above). One day (28 hr) or 3 days (76 hr) after the second treatment, the mice were sacrificed and whole blood and plasma were collected.
The collected whole blood samples were immediately diluted 10-fold in 5% ice-cold PCA and homogenized on ice. After 10 min centrifugation at 15,000 rpm, 4°C, the supernatant was subpackaged for measurement or –80°C storage. For NAD^+ measurement in whole blood, the supernatant was handled without freezing and thawing and was measured within 24 hr of sample collection. For measurement of plasma sUA, after sample collection, we immediately diluted the plasma with 5% ice-cold PCA, after vortex, samples were centrifuged at 15,000 rpm, 4°C for 10 min, the collected supernatant was used for the subsequent handling and measurement within 24 hr.
After the collection of blood samples, the mice were immediately perfused with ice-cold sterile PBS. The tissue samples were collected, dried with tissue paper, and weighed. All the tissue samples were immediately homogenized in 5% ice-cold PCA on ice, then centrifuged at 15,000 rpm, 4°C for 10 min. The supernatant was collected and stored at –80°C until further handling for measurement (see LC-MS/MS analysis).
As mentioned above, samples (cells, tissues, blood, or reaction buffer) were treated with ice-cold PCA, after extraction and centrifugation, the collected supernatant was appropriately diluted in 5% ice-cold PCA when applicable, and then was vortexed for 30 s and centrifuged at 15,000 rpm, 4°C for 5 min. Afterward, 30 μL supernatant was added into 200 μL 5 mM ammonium formate containing internal standards at indicated concentrations. Then, all the samples were vortexed for 30 s and centrifuged at 15,000 rpm, 4°C for 5 min again, the final supernatant was used for subsequent measurement. All the samples after handling were immediately analyzed in this study without freezing and thawing.
The LC-MS/MS system consisted of a triple quadrupole LCMS-8050 (Shimadzu) and an LC-30A system (Shimadzu). NAD^+, NMN, and the N-cyclohexyl benzamide (NCB, internal standard, 5 ng/mL) were eluted on Altlantis HILIC Silica (2.1×150 mm, 5 μm) at 40°C using an isocratic mobile phase containing 60% water with 0.1% formic acid and 40% acetonitrile with 0.1% formic acid at 0.4 mL/min. The selected transitions of m/z were 664.10 → 136.10 for NAD^+, 334.95 → 123.15 for NMN, and 204.10 → 122.20 for NCB in positive ion mode. NAD^+ and NMN were measured independently in this study, as their peaks were hardly separated within a short time.
sUA, cADPR, and FYU-981 (internal standard, 1 μM, Fuji Yakuhin Co., Ltd.) were eluted on CAPCELL PAK C8 TYPE UG 120 (2×150 mm, 5 μm) at 40°C. sUA and FYU-981 were separated using a gradient mobile phase containing water with 0.1% formic acid (A) and acetonitrile with 0.1% formic acid (B) at 0.4 mL/min. […]

[2] = system: cLPS-induced systemic inflammation; test: cLPS-induced systemic inflammation; type: in vivo, mouse; conditions: WT mice; for Effect on cLPS-induced systemic inflammation: OA or inosine alone, 1-day oral treatment
Experimental: Plasma sUA levels in WT and CD38 KO mice were increased to the minimum physiological levels of humans by 1-day sUA supplementation (OA plus inosine). Two hours after the last treatment of OA, or OA plus inosine, the mice were intraperitoneally injected with sterile PBS or cLPS (2 or 20 mg/kg), the injection volume was 3 mL/kg. Four hours (20 mg/kg) or 6 hr (2 mg/kg) after stimulation, the mice were sacrificed and whole blood, plasma, and serum were collected.
(§1) Human IL-1β, mouse IL-1β, IL-6, IL-18, TNF-α, and CXCL1 levels were measured according to the protocols provided by the manufacturer. Serum samples were diluted before ELISA when applicable. In this study, all the samples were frozen after collection and thawed before ELISA.

[3] = system: MSU crystal-induced peritonitis; test: MSU crystal-induced peritonitis; type: in vivo; conditions: WT mice, MSU crystals 2 mg/mouse; for Effect on MSU crystal-induced peritonitis: OA or inosine alone, 1-day oral treatment
Experimental: Plasma sUA levels in WT and CD38 KO mice were increased to the minimum physiological levels of humans by 1-day sUA supplementation (OA plus inosine). Two hours after the last treatment of OA, or OA plus inosine, the mice were intraperitoneally injected with sterile PBS or MSU crystals (2 mg/mouse), and the injection volume was 200 μL/mouse. Six hours after stimulation, the mice were sacrificed and blood samples were collected. For each mouse, the peritoneal cavity was washed with 5 mL ice-cold sterile PBS, the supernatant was collected by centrifugation for subsequent ELISA, and cell pellets were used for total viable cell count by Trypan Blue staining. In brief, cell pellet from 1.5 mL of peritoneal lavage fluid was resuspended in RBC lysis buffer for 30 s, sterile PBS (ninefold volume) was added to terminate lysis. Afterward, the cells were centrifuged at 1000 rpm for 5 min and resuspended in sterile PBS for viable cell count. For neutrophil count, peritoneal lavage fluid was directly used for smears after appropriate dilution, and subsequently, Wright-Giemsa staining was performed according to the protocol provided by the manufacturer.
as §1

[4] = 6 hr, 1-day sUA supplementation, not in CD38 KO mice

concentration at 4 h ([1]; mouse, plasma, mice, oral OA 1.5 g/kg plus inosine 1.5 g/kg, read-out: Plasma sUA levels in the sUA-supplementation models) [µM] | Serum IL-1β production ([1]; sUA-supplementation models within 7 days) | SMILES | Interference with whole blood NAD+ metabolism ([1]; WT mice) | Effect on cLPS-induced systemic inflammation ([2]; cLPS 2 mg/kg) | Effect on MSU crystal-induced peritonitis [3] | Effect on plasma sUA levels ([1]; mice, short-term administration of OA alone) | Whole blood NAD+ levels ([1]; 1- or 3-day moderate sUA supplementation (OA plus inosine), WT mice, not in CD38 KO mice) | cADPR production in whole blood ([1]; 1-day sUA supplementation, inflammatory conditions (cLPS 2 mg/kg), not under non-inflammatory conditions) | NAD+ levels in the brain and heart ([1]; 7-day sUA-supplementation model) | Plasma sUA and whole blood NAD+ after sUA release ([1]; WT mice, 1-day or 3-day release after 1-day supplementation) | NMN levels in vivo ([1]; sUA supplementation, whole blood) | cLPS-induced production of serum IL-1β and IL-18 ([2]; cLPS 2 mg/kg, 6 hr, 1-day sUA supplementation (OA plus inosine), abrogated in CD38 KO mice) | Serum TNF-α levels ([2]; cLPS 2 mg/kg, 6 hr, 1-day sUA supplementation) | High-dose cLPS-induced systemic inflammation ([2]; cLPS 20 mg/kg, 4 hr) | Production of IL-1β and IL-6, peritoneal lavage fluid [3, 4] | Recruitment of viable cells and neutrophils, peritoneal lavage fluid [3, 4]
– | – | O=c1[nH]cnc2c1ncn2[C@@H]1O[C@H](CO)[C@@H](O)[C@H]1O [Inosine, inosine, reference compound] | had no interference | hardly affected | hardly affected | – | – | – | – | – | – | – | – | – | – | –
– | – | O=C(O)c1nc(=O)[nH]c(=O)[nH]1 [OA, oxonic acid, reference compound] | had no interference | hardly affected | hardly affected | failed to increase plasma sUA levels | – | – | – | – | – | – | – | – | – | –
~120 | did not show an increase | O=c1[nH]c(=O)c2[nH]c(=O)[nH]c2[nH]1 [sUA, uric acid] | – | – | – | – | slightly but significantly increased | decrease in cADPR production | appeared to be elevated | gradually returned to their initial levels | minor effect on NMN levels | suppressed | without affecting | hardly limited | reduced the production of IL-1β and IL-6 | inhibited the recruitment of viable cells and neutrophils
